Source: ChEMBL document CHEMBL3046542, “Synthesis of some new 3,4-dihydro-2H-1,3-benzoxazines under microwave irradiation in solvent-free conditions and their biological activity” (Med Chem Res, 2011)

Assays:
Rattus norvegicus [1] = test: Anti-inflammatory activity in Rattus norvegicus Wistar (rat) assessed as inhibition of carrageenan-induced paw edema at dose molecularly equivalent to 20 mg/kg of ibuprofen administered as po after 3 hr relative to ibuprofen; type: functional
Mus musculus = test: Analgesic activity in Mus musculus Swiss albino (mouse) assessed as protection against acetic acid-induced writhing effect at 20 mg/kg, po after 3 hr relative to control; type: functional
Rattus norvegicus [2] = test: Gastrointestinal toxicity in Rattus norvegicus Wistar (rat) assessed as ulcer index at dose molecularly equivalent to 60 mg/kg of ibuprofen administered as po; type: organism-based; set-up: dose 60 mg/kg, route oral; settings: in vivo
Rattus norvegicus [3] = test: Gastrointestinal toxicity in Rattus norvegicus Wistar (rat) assessed as ulcer index at 60 mg/kg, po; type: organism-based; set-up: dose 60 mg/kg, route oral; settings: in vivo
Rattus norvegicus [4] = test: Anti-inflammatory activity in Rattus norvegicus Wistar (rat) assessed as inhibition of carrageenan-induced paw edema at 20 mg/kg, po after 3 hr relative to control; type: functional

`COc1cc(/C=C/C(=O)c2ccc3c(c2)CN(c2ccc(C)cc2)CO3)cc(OC)c1OC` was tested, and the inhibition in vivo (Rattus norvegicus [1]) was 56.5%.
`Cc1ccc(N2COc3ccc(C(=O)/C=C/c4ccc(Cl)cc4)cc3C2)cc1` was tested, and the inhibition in vivo (Rattus norvegicus [1]) was 63.4%.
Work on `Cc1ccc(N2COc3ccc(C(=O)/C=C/c4ccc(Cl)cc4Cl)cc3C2)cc1` yielded an Activity (Mus musculus) of 55.47%, a UI (Rattus norvegicus [2]) of 0.17 and an inhibition in vivo (Rattus norvegicus [1]) of 71.9%.
`COc1ccc(N2COc3ccc(C(=O)/C=C/c4ccccc4Cl)cc3C2)cc1` gave an inhibition in vivo (Rattus norvegicus [1]) of 63.4%.
Compound `COc1ccc(/C=C/C(=O)c2ccc3c(c2)CN(c2ccc(OC)cc2)CO3)cc1` has an inhibition in vivo (Rattus norvegicus [1]) of 61.2%.
`COc1ccc(N2COc3ccc(C(=O)/C=C/c4ccccc4O)cc3C2)cc1` gave an inhibition in vivo (Rattus norvegicus [1]) of 55.7%.
Work on `COc1ccc(N2COc3ccc(C(=O)/C=C/c4cc(OC)c(OC)c(OC)c4)cc3C2)cc1` yielded an inhibition in vivo (Rattus norvegicus [1]) of 62.2%.
`COc1ccc(N2COc3ccc(C(=O)/C=C/c4ccc(Cl)cc4)cc3C2)cc1` was tested, and the Activity (Mus musculus) was 52.22%, the UI (Rattus norvegicus [2]) was 0.25 and the inhibition in vivo (Rattus norvegicus [1]) was 67.4%.
In the case of `COc1ccc(N2COc3ccc(C(=O)/C=C/c4ccc(Cl)cc4Cl)cc3C2)cc1`, the Activity (Mus musculus) is reported as 57.38%, the UI (Rattus norvegicus [2]) is reported as 0.08 and the inhibition in vivo (Rattus norvegicus [1]) is reported as 74.9%.
Compound `Cc1ccc(N2COc3ccc(C(=O)/C=C/c4ccccc4Cl)cc3C2)cc1` has an inhibition in vivo (Rattus norvegicus [1]) of 60.4%.
Compound `COc1ccc(/C=C/C(=O)c2ccc3c(c2)CN(c2ccc(C)cc2)CO3)cc1` has an Activity (Mus musculus) of 54.27%, a UI (Rattus norvegicus [2]) of 0.17 and an inhibition in vivo (Rattus norvegicus [1]) of 70.4%.
For `Cc1ccc(N2COc3ccc(C(=O)/C=C/c4ccccc4O)cc3C2)cc1`, the inhibition in vivo (Rattus norvegicus [1]) was 51%.
Work on `CC(C)Cc1ccc(C(C)C(=O)O)cc1` (stereo not drawn) [IBUPROFEN] yielded an Activity (Mus musculus) of 63.06%, a UI (Rattus norvegicus [3]) of 1 and an inhibition in vivo at 20 mg/kg (Rattus norvegicus [4]) of 82.3%.
